Test results reported in PubChem BioAssay AID1963843 (Molecular Pharmacology Branch, DTP, NCI, 2024).

Test system: 616215-338-R-J1-PDC complex spheroid viability
Test: Anticancer human tumor 616215-338-R-J1-PDC patient-derived colon adenocarcinoma cell line growth inhibition [POLQ]
Settings: for IC50: curve of first compound; for viability, T/C: stronger effect = lower value
Method in brief: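 Growth inhibition in 3D: complex spheroids (tumor PDC, HUVEC, MSC) treated with POLQ inhibitor combinations; where Cmax unknown, highest tested concentration 10 microM, except SN-38 at 1 microM.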

[1] = second compound 0.0316 µM, first compound 0.0316 µM
[2] = second compound 0.0316 µM, first compound 0.1 µM
[3] = second compound 0.0316 µM, first compound 0.316 µM
[4] = second compound 0.0316 µM, first compound 1 µM
[5] = second compound 0.0316 µM, first compound 3.16 µM
[6] = second compound 0.0316 µM, first compound 10 µM
[7] = second compound 0.1 µM, first compound 0.0316 µM
[8] = second compound 0.1 µM, first compound 0.1 µM
[9] = second compound 0.1 µM, first compound 0.316 µM
[10] = second compound 0.1 µM, first compound 1 µM
[11] = second compound 0.1 µM, first compound 3.16 µM
[12] = second compound 0.1 µM, first compound 10 µM
[13] = second compound 0.316 µM, first compound 0.0316 µM
[14] = second compound 0.316 µM, first compound 0.1 µM
[15] = second compound 0.316 µM, first compound 0.316 µM
[16] = second compound 0.316 µM, first compound 1 µM
[17] = second compound 0.316 µM, first compound 3.16 µM
[18] = second compound 0.316 µM, first compound 10 µM
[19] = second compound 1 µM, first compound 0.0316 µM
[20] = second compound 1 µM, first compound 0.1 µM
[21] = second compound 1 µM, first compound 0.316 µM
[22] = second compound 1 µM, first compound 1 µM
[23] = second compound 1 µM, first compound 3.16 µM
[24] = second compound 1 µM, first compound 10 µM
[25] = second compound 3.16 µM, first compound 0.0316 µM
[26] = second compound 3.16 µM, first compound 0.1 µM
[27] = second compound 3.16 µM, first compound 0.316 µM
[28] = second compound 3.16 µM, first compound 1 µM
[29] = second compound 3.16 µM, first compound 3.16 µM
[30] = second compound 3.16 µM, first compound 10 µM
[31] = second compound 10 µM, first compound 0.0316 µM
[32] = second compound 10 µM, first compound 0.1 µM
[33] = second compound 10 µM, first compound 0.316 µM
[34] = second compound 10 µM, first compound 1 µM
[35] = second compound 10 µM, first compound 3.16 µM
[36] = second compound 10 µM, first compound 10 µM
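Also: spheroids exposed to compounds for one week before readout.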
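For viability, T/C in this document: percent viability relative to DMSO vehicle wells taken as 100%.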

## C#Cc1c(F)ccc2cc(O)cc(-c3ncc4c(N5CC6CCC(C5)N6)nc(OCC56CCCN5CC(F)C6)nc4c3F)c12 (centres undefined) + COC1C(OC(N)=O)C(O)C(Oc2ccc3c(O)c(NC(=O)c4ccc(O)c(CC=C(C)C)c4)c(=O)oc3c2C)OC1(C)C
Second compound 0.0316 µM
  IC50: > 10 µM
Second compound 0.1 µM
  IC50: > 10 µM
Second compound 0.316 µM
  IC50: > 10 µM
Second compound 1 µM
  IC50: > 10 µM
Second compound 3.16 µM
  IC50: > 10 µM
Second compound 10 µM
  IC50: > 10 µM
[1]
  viability, T/C: 108%
[2]
  viability, T/C: 109%
[3]
  viability, T/C: 101%
[4]
  viability, T/C: 112%
[5]
  viability, T/C: 113%
[6]
  viability, T/C: 79.2%
[7]
  viability, T/C: 103%
[8]
  viability, T/C: 105%
[9]
  viability, T/C: 98.2%
[10]
  viability, T/C: 108%
[11]
  viability, T/C: 95.8%
[12]
  viability, T/C: 64.1%
[13]
  viability, T/C: 110%
[14]
  viability, T/C: 102%
[15]
  viability, T/C: 110%
[16]
  viability, T/C: 105%
[17]
  viability, T/C: 103%
[18]
  viability, T/C: 58.1%
[19]
  viability, T/C: 105%
[20]
  viability, T/C: 108%
[21]
  viability, T/C: 109%
[22]
  viability, T/C: 94.7%
[23]
  viability, T/C: 103%
[24]
  viability, T/C: 71.3%
[25]
  viability, T/C: 105%
[26]
  viability, T/C: 109%
[27]
  viability, T/C: 103%
[28]
  viability, T/C: 110%
[29]
  viability, T/C: 104%
[30]
  viability, T/C: 64%
[31]
  viability, T/C: 94.5%
[32]
  viability, T/C: 103%
[33]
  viability, T/C: 109%
[34]
  viability, T/C: 106%
[35]
  viability, T/C: 100%
[36]
  viability, T/C: 82.6%

## CCc1cc2c(N3CCc4c(cc(Cn5ccnc5)cc4-c4cn(C)nc4C(F)(F)F)C3=O)cc(C)nc2c(OC)n1 + COC1C(OC(N)=O)C(O)C(Oc2ccc3c(O)c(NC(=O)c4ccc(O)c(CC=C(C)C)c4)c(=O)oc3c2C)OC1(C)C
Second compound 0.0316 µM
  IC50: 8.7 µM
Second compound 0.1 µM
  IC50: 9.03 µM
Second compound 0.316 µM
  IC50: 6.27 µM
Second compound 1 µM
  IC50: 8.55 µM
Second compound 3.16 µM
  IC50: 8.18 µM
Second compound 10 µM
  IC50: 9.28 µM
[1]
  viability, T/C: 101%
[2]
  viability, T/C: 109%
[3]
  viability, T/C: 109%
[4]
  viability, T/C: 110%
[5]
  viability, T/C: 60.5%
[6]
  viability, T/C: 48.6%
[7]
  viability, T/C: 106%
[8]
  viability, T/C: 111%
[9]
  viability, T/C: 99.5%
[10]
  viability, T/C: 92.9%
[11]
  viability, T/C: 64.6%
[12]
  viability, T/C: 48.8%
[13]
  viability, T/C: 106%
[14]
  viability, T/C: 109%
[15]
  viability, T/C: 99.7%
[16]
  viability, T/C: 91%
[17]
  viability, T/C: 59.8%
[18]
  viability, T/C: 43.1%
[19]
  viability, T/C: 113%
[20]
  viability, T/C: 105%
[21]
  viability, T/C: 104%
[22]
  viability, T/C: 85.1%
[23]
  viability, T/C: 57%
[24]
  viability, T/C: 49.2%
[25]
  viability, T/C: 113%
[26]
  viability, T/C: 110%
[27]
  viability, T/C: 102%
[28]
  viability, T/C: 86.6%
[29]
  viability, T/C: 76%
[30]
  viability, T/C: 44.2%
[31]
  viability, T/C: 115%
[32]
  viability, T/C: 99.2%
[33]
  viability, T/C: 95%
[34]
  viability, T/C: 77.3%
[35]
  viability, T/C: 53.8%
[36]
  viability, T/C: 51.8%
